Measurements: article PMC3944116 (CPT: Pharmacometrics & Systems Pharmacology, 2014)

Legend:
[1] = tested on: CYP3A4; assay: Pharmacogenetic covariate analysis: CYP3A4*22 on CL/F; format: in vivo, human; conditions: stated as % lower in text; univariate on base model
[2] = tested on: CYP3A4/CYP3A5; conditions: for Mean value (%), difference in CL/F, cluster C1 vs C4: C1: CYP3A5*1 noncarriers and CYP3A4*22 carriers; for Mean value (%), difference in CL/F, cluster C2 vs C4: C2: CYP3A5*1 noncarriers and CYP3A4*22 noncarriers
[3] = cited from earlier work
[4] = Population PK modeling; conditions: for Q/F, intercompartmental clearance: F fixed 0.5/1/0.23
[5] = tested on: CYP3A5; assay: Pharmacogenetic covariate analysis: CYP3A5*3 on CL/F; format: in vivo, human; conditions: final model; fractional change of CL/F in CYP3A5*1 carriers
[6] = base model without covariates, population estimate
[7] = final model with covariates, population estimate
[8] = final model, median of 1,000 bootstrap runs

CO[C@H]1C[C@@H]2CC[C@@H](C)[C@@](O)(O2)C(=O)C(=O)N2CCCC[C@H]2C(=O)O[C@H]([C@H](C)C[C@@H]2CC[C@@H](OCCO)[C@H](OC)C2)CC(=O)[C@H](C)/C=C(\C)[C@@H](O)[C@@H](OC)C(=O)[C@H](C)C[C@H](C)/C=C/C=C/C=C/1C [Everolimus]
lower clearance of CYP3A4*22 carriers compared with noncarriers [1]: 7% | Mean value (%), difference in CL/F, cluster C1 vs C4 ([2]; univariate on base model): −15% | Mean value (%), difference in CL/F, cluster C2 vs C4 ([2]; univariate on base model): −10% | plasma fraction bound to plasma proteins [3]: 75% | Lagtime of absorption [4, 6]: 0.71 h | Q/F, intercompartmental clearance [4, 6]: 42.7 L/h | Vp/F, apparent peripheral distribution volume ([4]; base model without covariates, population estimate, fixed to 500 for tacrolimus): 348 L | Vp/F ([4]; final model with covariates, fixed to 500 for tacrolimus): 343 L | Ka [4, 7]: 7 h⁻¹ | Lagtime [4, 7]: 0.71 h | Q/F [4, 7]: 43.1 L/h | Vc/F [4, 7]: 140 L | CL/F [4, 8]: 16.7 L/h | IBW on Vc/F, covariate effect ([4]; final model, ideal BW centered on population median, exponential function): −0.96

C=CC[C@@H]1/C=C(\C)C[C@H](C)C[C@H](OC)[C@H]2O[C@@](O)(C(=O)C(=O)N3CCCC[C@H]3C(=O)O[C@H](/C(C)=C/[C@@H]3CC[C@@H](O)[C@H](OC)C3)[C@H](C)[C@@H](O)CC1=O)[C@H](C)C[C@@H]2OC [Tacrolimus]
CYP3A5*3 on CL/F, covariate effect [5]: 0.52 | Mean value (%), difference in CL/F, cluster C1 vs C4 ([2]; univariate on base model): −47% | difference in clearance introduced for noncarriers of the CYP3A5*1 allele by CYP3A4*22 carriership ([2]; C1 vs C2): 14% | Mean value (%), difference in CL/F, cluster C2 vs C4 ([2]; univariate on base model): −33% | Mean value (%), difference in CL/F, cluster C3 vs C4 ([2]; C3: CYP3A5*1 carriers and CYP3A4*22 carriers, univariate on base model): −3% | Lagtime of absorption [4, 6]: 0.81 h | Q/F, intercompartmental clearance [4, 6]: 17.2 L/h | Ka [4, 7]: 0.55 h⁻¹ | Lagtime [4, 7]: 0.81 h | Q/F [4, 7]: 21 L/h | Vc/F [4, 7]: 25.5 L | DDPR ≤25 mg (IOV F) [4, 8]: 0.32 | HTC on CL/F + IOV F, covariate effect ([4]; final model, hematocrit): −0.587
